We go through one compound from patent publication US12063929B2, “3′-alkynyl abscisic acid derivatives as ABA antagonists” (University of Saskatchewan, priority 2018, dated 2024).

The subject of assay [1] is Soybean (AAC Edward; 2018). The assay can be described thus: Soybean germination assay. Format: in vivo. The protocol: For each treatment 6 replicates of 10 seeds were plated into petri dishes lined with two filter papers and 10 mL of test solution. The covered dishes were stored at room temperature in the dark. Germinated seeds were counted over 24 hours. The following dosages were used when studying the effect of exemplary compounds of the application on soybean germination: control 1% DMSO. 10 μM ABA, 10 μM exemplary compound 1019, 100 um exemplary compound 1019, 10 μM exemplary compound 1019 plus 10 μM ABA and 100 uM exemplary compound 1019 plus 10 μM ABA.

Assay [2] relates to Canary seed (CDC Bastia; 2018). Put plainly: Canary seed germination assay. Format: in vivo.
Assay [3] has as its system Canola seed (Nutrien PV200). Put plainly: Canola seed germination assay. Format: in vivo. How it is done:
For each treatment 6 replicates of 40 seeds were plated into petri dishes lined with two filter papers and 10 mL of test solution. The covered dishes were stored at room temperature in the dark. Germinated seeds were counted every 2 days for 8 days. The following dosages were used when studying the effect of exemplary compounds on canola germination: control 1% DMSO. 10 μM ABA, 100 μM 1019, and 100 μM 1019 plus 10 μM ABA.

Assay [4] has as its system rice. Put plainly: Rice radical elongation assay. The class given is in vivo. Particulars: 10 μM 1019 alone, 4.5 days post treatment (FIG. 11A). How it is done:
Seeds were surface sterilized by incubation in 10% bleach for 20 min with shaking, then rinsed four times with sterile water. Four ml of test solutions were pipetted into petri dishes (100×15 mm) that contain a single filter paper. Fifteen seeds were added to each dish. For rice, barely, and wheat, the experiment involved five treatments (5 μM ABA; 5 μM ABA+10 μM 1019; 10 μM 1019; water control; water+EtOH+NaOH control), with three replications per treatment. For sorghum, treatments were 10 μM ABA; 10 μM ABA+20 μM 1019; 20 μM 1019; water control; water+EtOH+NaOH control. Dishes were sealed with Parafilm, and incubated in the dark at room temperature. Radical length was measured daily post emergence using ImageJ software; shown are 3 days post treatment for barley, wheat and sorghum and 4.5 days post treatment for rice.

Assay [5] deals with wild and RIL lentil genotypes. Put plainly: Seed germination in wild and RIL populations of lentil genotypes. The class given is in vivo, lentil (L. orientalis, L. nigricans and others). From the text:
(§1) Fifty four lentil genotypes were selected for the experiment based on the existing data on the number of days it takes them to emerge and days to flowering. The seeds of each genotype were scarified before sowing and subjected to 3 treatments. VWR 415 9 cm filter papers were placed inside VWR 100 mm plastic petri dishes. Each petri dish was labeled on both the top and the bottom. Ten seed from each line was place in a labelled petri dish. Each lentil or faba bean genotype was replicated 3 times and subjected to 3 treatments (total number of experimental petri dishes=531). Thus: • 1. ABA exemplary compound solution [10 μM exemplary ABA analog compound 1019 in 1% DMSO, 99% H2O (LL10.1014.1) NaSaH (SL-1-16-1-53)] • 2. No exemplary ABA analogue solution (1% DMSO, 99% H2O) • 3. Distilled water—control
Seven milliliters of either exemplary ABA analogue solution, solution with no exemplary ABA analogue or distill water (control) was added into the corresponding labelled petri dishes containing the 10 scarified lentil seeds. For faba, bean, 10 ml because of their large seed size. The petri dishes were placed in a dark cupboard. Two digital temperature and humidity loggers (Tinytag) were placed inside the cupboards to monitor environmental conditions.
Germination was considered for a seed when a tiny radicle at least 5 mm or greater had emerged from the seed. The number of seeds that germinated was counted and recorded at 48 and 96 hours; and at 7 days. Some of the genotypes of interest were photographed (AF-S Micro NIKKOR 60 mm 1:2.8G camera) for comparison purpose. However, an excel sheet showing all results is available. At 48 hours, a total of 22 genotypes and their replicates were selected from the petri dishes treated with exemplary compound and distilled water were transplanted into pots (for faba bean) and trays (for lentils) in order to assess the length of time they took to flower while the rest of the petri dishes were kept till the end of the experiment that lasted a week.
The average temperature in the cupboards was 22.5° C. (±0.3) while the relative humidity ranged from 52.4 to 80.7 percent for the duration of the experiment. Studies carried out by Linda Gorim and Devini De. Silva, University of Saskatchewan

In assay [6] the test system is faba bean. The assay can be described thus: Faba bean seed germination and flowering. Format: in vivo. The following applies: 10 μM compound.
Description: as §1
Seven milliliters of either exemplary ABA analogue solution, solution with no exemplary ABA analogue or distill water (control) was added into the corresponding labelled petri dishes containing the 10 scarified lentil seeds. For faba, bean, 10 ml because of their large seed size. The petri dishes were placed in a dark cupboard. […]
Germination was considered for a seed when a tiny radicle at least 5 mm or greater had emerged from the seed. The number of seeds that germinated was counted and recorded at 48 and 96 hours; and at 7 days. […]

As to `CC1=C(C#Cc2ccccc2)C(=O)CC(C)(C)[C@@]1(O)/C=C/C(C)=C\C(=O)O` [Compound 1019, (2Z,4E)-5-((S)-1-Hydroxy-2,6,6-trimethyl-4-oxo-3-(phenylethynyl)cyclohex-2-en-1-yl)-3-methylpenta-2,4-dienoic acid], the soybean seed germination result in assay [1] (10 and 100 μM compound in the presence of 10 μM ABA) is listed as “overcame the inhibition”; in assay [1] (compound alone at 10 or 100 μM), “did not affect”. Also, the canary seed germination entry in assay [2] (10 μM compound plus 10 μM ABA, day 4) is “did not”; in assay [2] (100 μM compound plus 10 μM ABA, day 4) it was “overcame inhibition”; in assay [2] (compound alone, 10 μM or 100 μM), “Neither concentration of exemplary compound 1019 affected germination”. Also, the canola seed germination entry is listed as “did not significantly affect” in assay [3] (100 μM compound alone, compared to control) and “restored to near control levels” in assay [3] (100 μM compound plus 10 μM ABA). Also, the “radical length (Least Square mean); radical elongation” value in assay [4] was 1.036. For the same compound, the germination came out at 100% in assay [5] (L. nigricans IG-72551 seeds, at 2 days, 10 μM compound); 40% in assay [5] (L. orientalis IG72770, day 2, 10 μM compound); 75% in assay [5] (L. orientalis IG72770, day 3, 10 μM compound); 100% in assay [5] (L. orientalis IG72770, day 4, 10 μM compound). The “germination uniformity between replicates” value in assay [5] (all genotypes that responded, 10 μM compound) is “eliminated the variable germination rates”. In addition, the days to flowering result in assay [5] (lentil, transplanted at 48 hours, 10 μM compound) is recorded as “nor did it significantly affect”; in assay [6] (transplanted at 48 hours), “nor did it significantly affect”. The “number of lentil genotypes that responded positively (improved germination rate)” value in assay [5] (of 54 lentil genotypes screened, over 4 days, 10 μM compound) is 18. Further, the germination rates result in assay [6] was “no significant effect”.
